# Experimental data from article PMC9344678, “BTApep-TAT peptide inhibits ADP-ribosylation of BORIS to induce DNA damage in cancer” (Molecular Cancer, 2022).
# Where no end group is shown, it is not given here.
# T1: BORIS-N1-258 (Homo sapiens, UniProt Q8NI51)
# T1 construct: The N terminal section of BORIS corresponding to AA 1–258 (BORIS-N1-258); 6xHis (C); made in house
# T1 sequence (Q8NI51 1-258): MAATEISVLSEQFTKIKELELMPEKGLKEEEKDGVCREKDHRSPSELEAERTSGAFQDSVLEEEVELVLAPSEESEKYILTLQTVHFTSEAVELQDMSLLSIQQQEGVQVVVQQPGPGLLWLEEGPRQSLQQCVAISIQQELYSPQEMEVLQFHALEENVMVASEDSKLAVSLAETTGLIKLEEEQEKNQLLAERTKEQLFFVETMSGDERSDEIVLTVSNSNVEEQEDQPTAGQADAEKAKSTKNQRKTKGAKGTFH
# T2: BORIS N-terminal region AA 1-258 (BORIS-N_(1-258)), His-tagged, from bacteria (human, UniProt Q8NI51 1-258, biotin (conjugated for loading onto the SSA sensor; position not stated; not said of the protein used free in solution or coated on plates))
# T2 construct: Cloned in the backbone of plasmid pFN6K; also called BORIS antigen; not shown: His6, C-terminal, kept
# T2 sequence (looked up): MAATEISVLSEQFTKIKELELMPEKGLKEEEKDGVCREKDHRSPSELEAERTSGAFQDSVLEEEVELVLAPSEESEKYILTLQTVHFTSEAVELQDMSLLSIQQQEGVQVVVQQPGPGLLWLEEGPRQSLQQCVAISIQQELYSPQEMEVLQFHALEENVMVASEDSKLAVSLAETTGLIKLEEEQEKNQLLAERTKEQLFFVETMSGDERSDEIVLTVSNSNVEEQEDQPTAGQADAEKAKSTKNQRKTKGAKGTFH
# T3: BORIS-N_(1-258) expressed and purified from HEK293 cells (human, UniProt Q8NI51 1-258)
# T3 construct: source: HEK293 cells, expressed and purified
# T3 sequence (looked up): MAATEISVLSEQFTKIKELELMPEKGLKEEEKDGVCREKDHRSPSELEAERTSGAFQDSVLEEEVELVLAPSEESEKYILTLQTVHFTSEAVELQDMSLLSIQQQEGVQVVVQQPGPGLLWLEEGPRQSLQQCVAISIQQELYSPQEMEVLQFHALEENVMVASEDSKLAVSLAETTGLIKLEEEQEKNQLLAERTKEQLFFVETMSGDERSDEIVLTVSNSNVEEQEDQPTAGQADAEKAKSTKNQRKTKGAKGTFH
# What was measured:
# [1] = tested on: BORIS; assay: ADP ribosylation of BORIS under olaparib; type: cell-based; settings: PARP inhibitor incubation
# Protocol: HeLa or H1299 cells were lysed in immunoprecipitation (IP) buffer (50 mM Tris–HCl pH 7.4, 150 mM NaCl, 1% NP-40, 1 mM EDTA, 5% glycerol) containing protease inhibitor cocktails. The cell lysates were incubated with mouse anti-Myc (CST, 2276) or rabbit anti-poly/mono-ADP Ribose (E6F6A) monoclonal antibody (CST, 83732) on a rotary shaker at 4 °C overnight. Mouse or rabbit IgG (Santa Cruz, sc-2025 or sc2027) was used as a negative control for detecting the pull-down specificity. Protein G beads (Santa Cruz, sc-2001) or protein A beads (Santa Cruz, sc-2002) were added and incubated at room temperature for 2 h. The agarose beads were collected by centrifugation, washed five times with IP buffer according to the manufacturer’s instructions, and eluted in SDS sample buffer for the subsequent Western blotting assay.
# [2] = tested on: PARP2; settings: ref [33], [49]; cited from earlier work
# [3] = tested on: BORIS-N198-228 peptide; assay: PARP1-catalyzed in vitro PARylation assay; type: biochemical; settings: recombinant PARP1, ssDNA, 37 °C 30 min, dot blot anti-ADPr
# Protocol: Peptides (1–4 μg) incubated with different samples were added to 50 μL PARP1 reaction buffer (50 mM Tris–HCl at pH 7.4, 2 mM MgCl2, 200 μM NAD^+), which contained 0.2 μg of recombinant PARP1 (Trevigen, 4668–100-01) and 2.5 μg of ssDNA (Sigma, D8899), and reaction was carried out at 37 °C for 30 min. Low molecular weight peptide and PARP1 protein in the reactions were separated by a 30 kDa cutoff centrifugal filter (Millipore, UFC803096). Then, SDS loading buffer was added to separate peptides or proteins and analyzed by dot blotting using an anti- ADP ribosylation (ADPr) antibody.
# To further confirm ADP ribosylation at residues 198–228, the synthesized BORIS-N198-228 peptide was subjected to a PARP1-catalyzed in vitro PARylation assay. Single-strand DNA (ssDNA) was added to activate PARP1. The BORIS-N198-228 peptide was separated by centrifugal filtration, and its PARylation levels were examined by dot blotting using an anti-ADPr antibody. […] To determine the modification between residues 198–228, the BORIS-N198-228 peptide was pre-incubated with BTApep-TAT or His-TAT before processing for PARP1-catelyzed in vitro PARylation. […] Taken together, we provided evidence that ADP ribosylation of BORIS was responsible for the association with Ku70 and DNA repair. […]
# [4] = tested on: HEK293 cells; assay: Proliferation of HEK293 cells; type: cell-based; settings: 25 µM (Fig. 2D); normal cells not expressing BORIS
# Protocol: (§1) H1299 cells (RRID: CVCL_0060) were cultured in RPMI 1640 medium supplemented with 10% FBS. HEK293 (RRID:CVCL_0045) and HeLa (RRID:CVCL_0030) cells were cultured in Dulbecco's modified Eagle’s medium (DMEM) supplemented with 10% FBS and placed in 37 ℃ and 5% CO2 incubators. Cells were seeded in 6-well plates at 1 × 10^5 cells/well or in 96-well plates at 2000 cells/well for experiments. Cell viability was measured by MTT assay.
# (§2) Cells were plated and treated with BORIS-targeted peptide (BTApep-TAT) or negative control peptide (His-TAT) at concentrations of 10 µM, 25 µM, 50 µM and 100 µM for 3 days. Cell viability was measured by MTT assay. Cell apoptosis was measured by TUNEL assay (cat. # 40306ES20, Yeasen Biotech Co., Ltd) and Caspase-Glo 3/7 assay (G8090, Promega Corporation, an affiliate of Promega (Beijing) Biotech Co., Ltd.).
# [5] = tested on: H1299 cells; assay: Proliferation of H1299 cells (MTT, cell counting); type: cell-based; settings: 25 µM (Fig. 2D)
# Protocol: as §1, §2
# [6] = molecular target: T1, BORIS-N1-258; assay: BLI, BORIS-N1-258 immobilized on SSA sensor, free peptide in solution; type: binding; settings: free peptide in PBS with 0.02% Tween 20
# Protocol: Twelve tandemly connected His was synthesized and conjugated with biotin or FITC as a negative control peptide by China Peptides Co., Ltd. The peptides were stored in powder at -80 °C. The peptides were dissolved in phosphate-buffered saline and filtered through a 0.22 µm filter to remove bacteria before use. The interaction between peptides and BORIS-N1-258 was measured by Bio-layer interferometry (BLI) in the ForteBio OctetRed system. The measurement was carried out in 5 steps: initial baseline duration, loading duration, baseline duration, association duration, and dissociation duration. In loading duration, 10 nM biotinylated peptides or 1 µM BORIS-N1-258 protein were immobilized on streptavidin-coated biosensors (ForteBio). The immobilization typically reached a response level of 4 nm. Association and dissociation curves were obtained through the addition of a dilution series of BORIS-N1-258 or peptides in PBS with 0.02% Tween 20 for the indicated period of time using Octet acquisition software. The binding data were fitted using Octet analysis software.
# The BORIS-N1-258 protein was conjugated with biotin and loaded onto an SSA sensor. The synthesized peptides were dissolved in PBS with 0.02% Tween 20.
# [7] = molecular target: T2, BORIS N-terminal region AA 1-258 …; assay: BLI; ForteBio OctetRed; biotin-labeled peptide 9 loaded onto an SA sensor (10 nM in loading), dilution series of BORIS-N_(1-258) in PBS with 0.02% Tween 20; settings: both partners purified
# [8] = molecular target: T3, BORIS-N_(1-258) expressed and purified …; assay: as above; settings: both partners purified
# [9] = molecular target: T2, BORIS N-terminal region AA 1-258 …; assay: ELISA; plates coated overnight at 4 °C with purified His-tagged BORIS-N_(1-258) (carbonate buffer, pH 9.6); purified phage clones in serial dilutions, 2 h at RT; detection by HRP-conjugated anti-M13 antibody; settings: both partners purified
# [10] = molecular target: T2, BORIS N-terminal region AA 1-258 …; assay: BLI; ForteBio OctetRed; biotin-conjugated BORIS-N_(1-258) loaded onto an SSA sensor (1 µM in loading), free peptide in solution in PBS with 0.02% Tween 20; settings: both partners purified
molecule,measurement,setting,value
"O=C(c1cc(Cc2n[nH]c(=O)c3ccccc23)ccc1F)N1CCN(C(=O)C2CC2)CC1 [Olaparib, olaparib]",effect on ADP ribosylation of BORIS,[1],did not attenuate ADP ribosylation of BORIS
same,inhibition of PARP2,[2],inhibits
"BORIS-N198-228 peptide: synthesized peptide of BORIS residues 198–228 (EQLFFVETMSGDERSDEIVLTVSNSNVEEQE; UniProt Q8NI51 198-228, looked up, fragment)",PARylation of the peptide itself,[3],accumulated in proportion to its abundance
BTApep: BORIS-targeted peptide lacking the TAT penetrating peptide (VHWDFRQWWQPS),suppression of proliferation of HEK293 cells,[4],did not inhibit cell proliferation
same,suppression of proliferation of H1299 cells,[5],did not inhibit cell proliferation
DWSSWVYRDPQT [Peptide 2],Kd,"[6]; bacterial BORIS-N1-258 on SSA sensor, read-out: binding affinity (Kd)",315 µM
RFDHWVWQSQPW [Scrambled peptide 9],affinity in BLI,"[6]; result in words, BORIS-N1-258 on SSA sensor",did not have any measurable affinity
"VHWDFRQWWQPS (also: biotin (position not given here), 12-mer selected from the Ph.D.-12 phage display peptide library; also called BTApep-biotin; biotinylated peptide 9; source: synthetic peptide (China Peptides Co., Ltd.)) [Peptide 9 labeled with biotin]",Kd,[7],0.0053 µM
same,Kd,[8],0.00637 µM
"VHWDFRQWWQPSGGGS (4 amino acid spacer that links the 12-mer to the N-terminus of a phage coat protein; Whole phage particle; source: purified phage clone from the Ph.D.-12 Phage Display Peptide Library (New England Biolabs); not shown: phage coat protein (Ph.D.-12 library), C-terminal, kept) [Phage clone 9 (peptide 9 displayed on phage)]",binding result,[9],binds
"DWSSWVYRDPQT (12-mer selected from the Ph.D.-12 phage display peptide library; source: synthetic peptide (China Peptides Co., Ltd.)) [Peptide 2]",Kd,[10],314 µM
"VHWDFRQWWQPS (12-mer selected from the Ph.D.-12 phage display peptide library; The methods say that the peptides were synthesized and conjugated with biotin or FITC; also called peptide from phage clone 9; BTApep; source: synthetic peptide (China Peptides Co., Ltd.)) [Peptide 9 (synthesized, free in solution)]",Kd,[10],86.4 µM
